Values joined by “and” are separate entries in the source; they are usually repeats but may differ in a detail not shown here. Identical values can stand only once. Like-named read-outs stand apart in the source and are kept apart here.
Columns and labels:
[1] = test system: domestic flies; assay: insecticidal activity, full-scale (large-scale) test in premises; format: in vivo; details: 2% solution, 2-3 dishes per 20 m²; 72 hours
Method: The full-scale tests for activity of the insecticidal composition of the invention to domestic flies in habitable and industrial premises were carried out as follows. The Petri dishes containing a 2% solution of the insecticidal composition of the invention were located according 2-3-dishes per 20 m². The composition activity was evaluated by a direct estimation of killed insects in 72 hours or by using an adhesive tape to count the number of flies on its surface prior to and after conducting the test.

[2] = mice and rats; cited from earlier work
[3] = test system: Candida albicans; assay: fungicidal activity, laboratory test on Sabouraud medium; format: cell-based; details: 0.01% solution in water
Method: (§1) A fungicidal composition based on this compound was prepared, which was a 0.01% solution of the compound in water. […] For testing it the Petri dishes containing Sabourand growth medium were inoculated by using suspension of microorganisms containing 5x10⁷ cells of fungi in 1 ml.
(§2) The restricted surface areas (7 mm in diameter) were coated with the composition by means of a small metal spatula 4x4 mm in size. In a day of incubating it at 37°C in the thermostat the composition inhibited the growth of yeast-like fungi. An antifungal activity of the composition was specified according to the method of 10-fold serial dilution using Sabourand's liquid medium in 2 ml of which 2x10⁵ cells were introduced.

[4] = test system: Candida Tropi-calis; assay: fungicidal activity, large-scale test on surfaces of articles; format: cell-based, Candida tropicalis; details: 0.01% solution in water
Method: (§3) The large-scale tests were carried out by using Candida albicans and Candida tropicalis strains, with their 2-day agar culture being diluted with an isotonic sodium chloride solution up to the concentration of 5x10⁷ cells in 1 ml. The culture suspension was laid on the surface (7 mm in diameter) of articles made of ceramics, metal, wood and rubber as well as a cotton, flannel and woollen cloth which were presterilized.
(§4) In a day after incubation from the treated areas washings were taken with a cotton-gauze tampon which was moistened with Sabouraud's liquid medium, then they were immersed into the tubes containing a similar medium, and placed into thermostat at 37°C for 2 days. Thereafter, the inoculum was transfered onto a solified Sabouraud agar, and the values of growth were recorded according to a conventional procedure. The test data of the composition according to the invention over a known composition (zineb) and the control are given in Table 3.

[5] = test system: Candida Tropi-calis; assay: fungicidal activity, laboratory test on Sabouraud medium; format: cell-based, Candida tropicalis; details: 0.01% solution in water
Method: as §1, §2

[6] = test system: Candida albicans; assay: fungicidal activity, large-scale test on surfaces of articles; format: cell-based; details: 0.01% solution in water
Method: as §3, §4

[7] = test system: domestic flies; assay: insecticidal activity, laboratory test in gauze boxes; format: in vivo; details: for Death of flies, % Tests in laboratory: 2% solution in 5% aqueous glucose, observed in 48-72 hours
Method: The compound obtained was used for preparing an insecticidal composition which was a 2% solution of the compound in a 5% aqueous solution of glucose. The test for activity of the insecticidal composition of the invention was conducted on domestic flies. Into gause 10x10 cm boxes /6 boxes/ 6-7-day flies were placed in the number of 50 individuals per box, which were of both sexes. The Petri dishes containing the insecticidal composition of the invention were put into 5 boxes. The observations for fly death were carried out in 48-72 hours. The Petri dish containing a 5% aqueous glucose solution were placed into a control box.

[8] = test system: Hepatitis B virus; assay: virulicidal activity, HBsAg titer in blood serum
Excerpt: table ratio instead of the test composition.

[9] = test system: pig ascarid eggs; assay: microbe, parasite or virus in culture
[10] = test system: Influenza A viruses; assay: virulicidal activity, virus titer in allantoic fluid by hemagglutination-inhibition
[11] = test system: Meningopneumonia virus; parameters: species or system meningopneumonia pathogene/MP strain/
[12] = test system: Escherichia coli; assay: microbe, parasite or virus in culture; format: cell-based; details: Escherichia coli, read-out: Death of micro-organisms, % Escherichia coli
[13] = test system: Staphylococcus aureus; assay: microbe, parasite or virus in culture; format: cell-based; details: Staphylococcus aureus, read-out: Death of micro-organisms, % Staphylo-cocus aureus
[14] = 24 h, read-out: Death of ascaridal eggs, % after 24 hours
[15] = 48 h, read-out: Death of ascaridal eggs, % after 48 hours

Compound	Death of flies, % Tests in large-scale [1]	Growth inhibition of fungal colonies, % Candida albicans Laboratory tests [3]	Growth inhibition of fungal colonies, % Candida Tropi-calis Large-scale tests [4]	Growth inhibition of fungal colonies, % Candida Tropi-calis Laboratory tests [5]	Growth inhibition of fungal colonies, % Candida albicans Large-scale tests [6]	Death of flies, % Tests in laboratory [7]	Virulicidal activity (%) under exposure 30 min ([10]; concentration 1.0 % by mass)	Virulicidal activity (%) under exposure 30 min ([10]; concentration 2.0 % by mass)	also measured
COP(=O)(OC)C(O)C(Cl)(Cl)Cl (stereo not shown) [0,0-dimethyl/1-hydroxy-2,2,2,-trichloroethyl/-phosphonate, reference compound]	88.0%	–	–	–	–	–	–	–	LD₅₀ [2]: 225 to 1200 mg/kg
COP(=NC(CO)C(O)c1ccc([N+](=O)[O-])cc1)(OC)OC (stereo not shown) [Example 1, trimethoxyphosphazo-1-para-nitrophenyl-1,3-propandiol]	87.0%	100.0%	100.0%	100.0%	100.0%	89.1%	–	–	–
CCOP(=NC(CO)C(O)c1ccc([N+](=O)[O-])cc1)(OCC)OCC (stereo not shown) [Example 2, triethoxyphosphazo-1-para-nitrophenyl-1,3-propandiol]	83.0%	100.0%	100.0%	100.0%	100.0%	84.7%	–	–	–
CCCOP(=NC(CCl)C(O)c1ccc([N+](=O)[O-])cc1)(OCCC)OCCC (stereo not shown) [Example 5, tri-n-propoxyphosphazo-1-para-nitrophenyl-1-chloro-3-propanol]	93.0%	–	–	–	–	94.5%	12.5%	50.0%	Virulicidal activity (%) under exposure 30 min ([8]; concentration 1.0 % by mass): 12.5%; Virulicidal activity (%) under exposure 60 min ([8]; concentration 1.0 % by mass): 50.0%; Virulicidal activity (%) under exposure 30 min ([8]; concentration 2.0 % by mass): 25,0%; Virulicidal activity (%) under exposure 60 min ([8]; concentration 2.0 % by mass): 75,0%; killing at 2 % [9, 14]: 100%; killing at 2 % [9, 15]: 100%; Virulicidal activity (%) under exposure 60 min ([10]; concentration 1.0 % by mass): 50.0%; Virulicidal activity (%) under exposure 60 min ([10]; concentration 2.0 % by mass): 75.0%; Virulicidal activity (%) under exposure 60 min [11]: 50.0% and 75.0%
COP(=NC(CCl)C(Cl)c1ccc([N+](=O)[O-])cc1)(OC)OC (stereo not shown) [Example 9, trimethoxyphosphazo-1-para-nitrophenyl-1,3-dichloropropane]	83.0%	100.0%	100.0%	100.0%	100.0%	85.2%	–	–	killing at 0.5 % [12]: 100%; killing at 0.5 % [13]: 100%
CCOP(=NC(CCl)C(Cl)c1ccc([N+](=O)[O-])cc1)(OCC)OCC (stereo not shown) [Example 10, triethoxyphosphazo-1-para-nitrophenyl-1,3-dichloropropane]	88.0%	100.0%	100.0%	100.0%	100.0%	89.9%	–	–	killing at 0.5 % [12]: 100%; killing at 0.5 % [13]: 99.8%
COP(=NC(CCl)C(O)c1ccc([N+](=O)[O-])cc1)(OC)OC (stereo not shown) [Example 15]	–	100.0%	100.0%	100.0%	100.0%	–	–	–	–
CCOP(=NC(CCl)C(O)c1ccc([N+](=O)[O-])cc1)(OCC)OCC (stereo not shown) [Example 16, triethoxy-phosphazo-1-para-nitrophenyl-1-chloro-3-propanol]	–	100.0%	100.0%	100.0%	100.0%	–	50.0%	98.4%	Virulicidal activity (%) under exposure 30 min ([8]; concentration 1.0 % by mass): 50.0%; Virulicidal activity (%) under exposure 60 min ([8]; concentration 1.0 % by mass): 75.0%; Virulicidal activity (%) under exposure 30 min ([8]; concentration 2.0 % by mass): 100,0%; Virulicidal activity (%) under exposure 60 min ([8]; concentration 2.0 % by mass): 100,0%; Virulicidal activity (%) under exposure 60 min ([10]; concentration 1.0 % by mass): 75.0%; Virulicidal activity (%) under exposure 60 min ([10]; concentration 2.0 % by mass): 100.0%; Virulicidal activity (%) under exposure 30 min [11]: 25.0% and 50.0%; Virulicidal activity (%) under exposure 60 min [11]: 50.0% and 99.0%
O=C(N[C@H](COP(=N[C@@H](CO)[C@@H](O)c1ccc([N+](=O)[O-])cc1)(OC[C@@H](NC(=O)C(Cl)Cl)[C@H](O)c1ccc([N+](=O)[O-])cc1)OC[C@@H](NC(=O)C(Cl)Cl)[C@H](O)c1ccc([N+](=O)[O-])cc1)[C@H](O)c1ccc([N+](=O)[O-])cc1)C(Cl)Cl [Example 27]	–	–	–	–	–	–	100.0%	100.0%	killing at 2 % [9, 14]: 100%; killing at 2 % [9, 15]: 100%; Death of flies, % after 48 hours ([7]; concentration 2.0 % by mass, after 48 hours): 34.0%; Death of flies, % after 72 hours ([7]; concentration 2.0 % by mass, after 72 hours): 62.0%

Reference: patent EP0414894A1 (priority 1989, dated 1990)
